Laboratory results as given in patent publication US20220259249A1, “INHIBITORS OF ANTIBIOTIC RESISTANCE MEDIATED BY ARNT” (priority 2019, published 2022).
Like-named read-outs stand apart in the source and are kept apart here.

Columns and labels:
[1] = system: P. aeruginosa PA14 col^R 5 (colistin-resistant strain); experiment: microbe, parasite or virus in culture; type: cell-based; details: for IC90: read-out: IC90, synergy with colistin (8 μg/ml)
Description: The compounds identified by in silico screening were tested for their antibacterial activity (in the absence of colistin) and for their synergistic or adjuvant activity with colistin against a colistin-resistant strain of P. aeruginosa grown in the absence or presence of a sub-inhibitory concentration of colistin (8 μg/ml).
This strain over-expresses the am genes responsible for the modification of lipopolysaccharide by the addition of L-amino-arabinose.
The strain was grown in Mueller-Hinton (MH) medium for 8 hours, and inoculated at a cell density of ˜10^6/ml in MH medium supplemented or not with colistin at a concentration of 16 μg/ml. […] The microtitration plates were incubated at 37° C. without stirring for 24 hours. Bacterial growth was assessed by measuring absorbance at 600 nm (A600) in a microplate reader (Victor 2^V, Perkin-Elmer). […] For each compound three independent experiments were conducted, and the averages of the values obtained in the three experiments are considered to determine the values of IC50 e IC90.

[2] = system: 16HBE cells (human epithelial cells of bronchial origin); experiment: Cell viability test (MTT reduction); details: for reduction in cell viability: highest concentration (250 μM);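 as to all read-outs here: formazan absorbance at 570 nm after MTT reduction, corrected for cell-free blank wells, reported relative to untreated cells, from duplicate wells over three independent repeats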
Description: The cytotoxic potential of the compounds was evaluated on cell cultures in vitro. […] The results are reported in the table as viability (%) compared to untreated cells (Table 4).
To evaluate the cytotoxic potential of the compounds under examination, the MTT (3-(4,5-dimethylthiazol-2-yl)-2,5-diphenyltetrazolium) reduction test, commonly used to monitor cell viability was used following the exposure to potentially cytotoxic agents. The essay is based on the reduction of MTT to formazan, a compound that assumes a blue colour which can be evaluated by spectrophotometric reading at a wavelength of 570 nm. For the essay we used the 16HBE cell line. […] Each test was performed in duplicate and three independent replicas were made.
Cell viability was calculated as follows:
COD570=OD570 of sample−OD570 of wells without cells (white)
Viability=100−reduction (%)
where: NT indicates the samples of cells non-threated with the compounds; T the samples of cells treated with the compounds at the different concentrations.
The mean cell viability values were calculated using the Excel mean and standard deviation functions.

[3] = system: P. aeruginosa strains resistant and sensitive to colistin; experiment: MIC of colistin in presence of BBN149 or DMSO, P. aeruginosa strains; type: cell-based; details: for MIC of colistin with 0.6% DMSO as a control: colistin without BBN149
Description: (§1) All the colistin-resistant strains used depend on the aminoarabinosylation of lipid A as a mechanism of resistance to colistin (Lo Sciuto e Imperi, 2018; Esposito et al., 2018). […] MIC essays were performed in 96-well microtitration plates, using previously characterized P. aeruginosa and K. pneumoniae strains (Lo Sciuto e Imperi, 2018; Esposito et al., 2018). […] At least three independent experiments were conducted for each strain.

[4] = system: P. aeruginosa PA14 col^R 5 (colistin-resistant strain); experiment: Checkerboard assay compound/colistin; type: cell-based
Description: The checkerboard essays were performed in microtiter plates with 96 wells, aliquoting in each column of wells 50 μl of MH medium containing decreasing concentrations of colistin (dilutions in reason of 2 from 384 to 1.5 μg/ml) or without colistin, and in each row of wells further 50 μl of MH medium containing decreasing concentrations of compound of interest (dilutions in reason 2 from […]) or without compound. Finally, 50 μl of the inoculum of the PA14 col^R 5 strain were added to each well at a concentration of ˜1.5×10^6 cells/ml in MH medium, so as to reach a final volume of 150 μl, a bacteria concentration equal to […], colistin concentrations in the range 0-128 μg/ml and concentrations of compounds of interest in the range 0-125 μM. Plates were incubated at 37° C. without shaking for 24 hours, and bacterial growth was assessed by measuring the A600 in a microplate reader (Victor 2^V, Perkin-Elmer). Three independent experiments were conducted for each compound, and the averages of the values obtained in the three experiments were considered to determine the IC90 values.

[5] = system: colistin-resistant clinical strains of Klebsiella pneumoniae; experiment: MIC of colistin in presence of BBN149 or DMSO, K. pneumoniae clinical strains; type: cell-based; details: for MIC of colistin with 0.6% DMSO as a control: colistin without BBN149
Description: as §1

[6] = Pseudomonas aeruginosa, PA14, 24 h, read-out: IC50 without colistin
[7] = 16HBE, 1.95 μM, 18 hours, MTT, vs untreated cells
[8] = 16HBE, 3.91 μM, 18 hours, MTT, vs untreated cells
[9] = 16HBE, 7.81 μM, 18 hours, MTT, vs untreated cells
[10] = 16HBE, 15.63 μM, 18 hours, MTT, vs untreated cells
[11] = 16HBE, 62.5 μM, 18 hours, MTT, vs untreated cells
[12] = 16HBE, 125 μM, 18 hours, MTT, vs untreated cells
[13] = 16HBE, 250 μM, 18 hours, MTT, vs untreated cells
[14] = compound ≥31 μM, MIC 64 to 8 μg/ml, PA14 col^R 5
[15] = 16HBE, 31.25 μM, 18 hours, MTT, vs untreated cells
[16] = PA14 ColR5, colistin 8 μg/ml (sub-inhibitory), minimum concentration causing at least 90% growth inhibition, 24 h

Row | Compound | IC50 [1, 6] [µM] | Average percentage of cell viability (±standard deviation) [2] [%] | Average percentage of cell viability (±standard deviation) [2, 7] [%] | Average percentage of cell viability (±standard deviation) [2, 8] [%] | Average percentage of cell viability (±standard deviation) [2, 9] [%] | Average percentage of cell viability (±standard deviation) [2, 10] [%] | Average percentage of cell viability (±standard deviation) [2, 11] [%] | Average percentage of cell viability (±standard deviation) [2, 12] [%] | Average percentage of cell viability (±standard deviation) [2, 13] [%] | reduction of MIC of colistin (times) [4, 14] [times] | Average percentage of cell viability (±standard deviation) [2, 15] [%] | concentration of compound reducing MIC of colistin by 4 times [4] [µM] | IC90 [1, 16] [µM] | reduction in cell viability ([2]; 16HBE, 18 hours) | other results
1 | C[C@]12C=C[C@@]3(CC[C@@H]4[C@@](C)(COC(=O)C(=O)O)CCC[C@@]4(C)[C@@H]3CC1)C2 [BBN149, ent-beyer-15-en-18-O-oxalic acid] | > 250 | 86.07 ± 5.30 | 94.15 ± 6.34 | 90.17 ± 7.35 | 86.13 ± 2.37 | 90.80 ± 6.31 | 76.33 ± 2.65 | 71.99 ± 5.18 | 65.51 ± 4.05 | 8 |  |  |  |  | IC50 ([1]; Pseudomonas aeruginosa, PA14, 24 h, read-out: IC50, synergy with colistin (8 μg/ml)): 15.6 µM; IC90 ([1]; Pseudomonas aeruginosa, PA14, 24 h): 31.2 µM; inhibition of bacterial growth in the presence of colistin ([1]; colistin 8 μg/ml): able to inhibit bacterial growth in the presence of colistin; antibacterial activity per se ([1]; in the absence of colistin): none of the compounds showed antibacterial activity per se; activity on colistin-sensitive strains ([3]; 60 μM BBN149, colistin-sensitive P. aeruginosa strains): no relevant activity; MIC of colistin in the presence of 60 μM BBN149 ([3]; strain KK1): 1 µg/mL; MIC of colistin in the presence of 60 μM BBN149 ([3]; strain KK1 col^R 1): 8 µg/mL; MIC of colistin in the presence of 60 μM BBN149 ([3]; strain KK27): 1 µg/mL; MIC of colistin in the presence of 60 μM BBN149 ([3]; strain KK27 col^R 6): 4 µg/mL; MIC of colistin in the presence of 60 μM BBN149 ([3]; strain PA14): 1 µg/mL; MIC of colistin in the presence of 60 μM BBN149 ([3]; strain PA14 col^R 5): 8 µg/mL; MIC of colistin in the presence of 60 μM BBN149 ([3]; strain TR1): 1 µg/mL; MIC of colistin in the presence of 60 μM BBN149 ([3]; strain TR1 col^R 6): 4 µg/mL; reduction of MIC of colistin (times) [4]: 4 times; concentration of compound reducing MIC of colistin by 4 times ([4]; MIC of colistin 64 to 16 μg/ml, PA14 col^R 5): ≥ 16 µM; MIC of colistin in the presence of 60 μM BBN149 ([5]; strain KP-Mo-3): 16 µg/mL; MIC of colistin in the presence of 60 μM BBN149 ([5]; strain KP-Mo-5): 8 µg/mL; MIC of colistin in the presence of 60 μM BBN149 ([5]; strain KP-Mo-6): 4 µg/mL; MIC of colistin in the presence of 60 μM BBN149 ([5]; strain KP-Mo-11): 8 µg/mL; MIC of colistin in the presence of 60 μM BBN149 ([5]; strain KP-Mo-16): 8 µg/mL
2 | C[C@@]12CCC3[C@@](CCC4[C@@](C)(COC(=O)C(=O)O)CCC[C@]43C)(CC1)C2 (stereo partly drawn) [FDO-H, ent-beyeran-18-O-oxalic acid] | < 250 |  | 106.31 ± 17.23 | 94.57 ± 12.67 | 100.25 ± 23.84 | 94.06 ± 3.88 | 97.14 ± 12.19 | 98.42 ± 16.71 | 76.51 ± 12.64 | 8 | 93.65 ± 11.27 | ≥ 4 |  |  | IC50 ([1]; read-out: IC50, synergy with colistin (8 μg/ml), PA14 ColR5, colistin 8 μg/ml (sub-inhibitory), minimum concentration causing at least 50% growth inhibition, 24 h): 7.81 µM; reduction of MIC of colistin (times) ([4]; compound ≥4 μM, PA14 col^R 5): 4 times
3 | C[C@@]12CCC3[C@@](CCC4[C@@]3(C)CCC[C@@]4(C)C(=O)OC3OC(CO)C(O)C(O)C3O)(CC1)C2 (stereo partly drawn) [SR4, glucopyranosyl β-D ester of ent-beyeran-19-oic acid] | > 250 |  | 96.35 ± 9.42 | 92.31 ± 3.26 | 92.44 ± 2.11 | 97.27 ± 5.61 | 99.27 ± 2.43 | 106.23 ± 5.52 | −1.11 ± 2.02 |  | 101.69 ± 4.39 | 125 | > 250 | total reduction of cell viability | reduction of MIC of colistin (times) ([4]; compound 125 μM only, PA14 col^R 5): 4 times; melting point: 160 °C
4 | C[C@@]12CCC3[C@@](CCC4[C@@]3(C)CCC[C@@]4(C)C(=O)O)(CC1)C2 (stereo partly drawn) [SR10, ent-beyeran-19-oic acid] | > 250 | 99.52 ± 9.52 | 105.21 ± 6.73 | 104.95 ± 6.36 | 101.00 ± 7.12 | 97.98 ± 1.66 | 99.80 ± 4.30 | 92.07 ± 5.47 | 1.47 ± 2.29 |  |  |  | > 250 | total reduction of cell viability | 
5 | colistin [reference compound] |  |  |  |  |  |  |  |  |  |  |  |  |  |  | MIC of colistin with 0.6% DMSO as a control ([3]; strain KK1): 0.5 µg/mL; MIC of colistin with 0.6% DMSO as a control ([3]; strain KK1 col^R 1): 128 µg/mL; MIC of colistin with 0.6% DMSO as a control ([3]; strain KK27): 0.5 µg/mL; MIC of colistin with 0.6% DMSO as a control ([3]; strain KK27 col^R 6): 64 µg/mL; MIC of colistin with 0.6% DMSO as a control ([3]; strain PA14): 0.5 µg/mL; MIC of colistin with 0.6% DMSO as a control ([3]; strain PA14 col^R 5): 64 µg/mL; MIC of colistin with 0.6% DMSO as a control ([3]; strain TR1): 0.5 µg/mL; MIC of colistin with 0.6% DMSO as a control ([3]; strain TR1 col^R 6): 16 µg/mL; MIC of colistin with 0.6% DMSO as a control ([5]; strain KP-Mo-3): 128 µg/mL; MIC of colistin with 0.6% DMSO as a control ([5]; strain KP-Mo-5): 128 µg/mL; MIC of colistin with 0.6% DMSO as a control ([5]; strain KP-Mo-6): 32 µg/mL; MIC of colistin with 0.6% DMSO as a control ([5]; strain KP-Mo-11): 64 µg/mL; MIC of colistin with 0.6% DMSO as a control ([5]; strain KP-Mo-16): 64 µg/mL
